Experiments:
Vil1-Grem1;Apc^Min mice = assay: Vil1-Grem1;Apc^Min mouse polyposis model (survival); format: in vivo
Apc^Min mice = assay: Apc^Min mouse polyposis model (survival); format: in vivo; conditions: for median survival: vehicle 192 days
rhGremlin-1 = biological target: T1, rhGremlin-1 (Homo sapiens, UniProt O60565); assay: SMAD phosphorylation assay: restoration of p-SMAD signalling, lung fibroblasts from idiopathic pulmonary fibrosis patients; format: cell-based
T1 sequence (O60565 25-184): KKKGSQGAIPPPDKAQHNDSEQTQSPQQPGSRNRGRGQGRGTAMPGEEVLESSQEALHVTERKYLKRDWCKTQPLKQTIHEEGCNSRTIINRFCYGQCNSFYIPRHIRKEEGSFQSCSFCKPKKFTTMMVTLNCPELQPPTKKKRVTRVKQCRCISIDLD
Method: Antibodies were screened using the Hek-Id1 reporter gene assay described in Example 3 and by measuring SMAD phosphorylation. SMAD1, 5 and 8 are phosphorylated upon BMP signalling. Inhibitors of Gremlin-1 therefore increase SMAD phosphorylation.
SMAD phosphorylation assays were conducted on A549 cells or on human lung fibroblasts. Phosphorylation levels were determined using MSD.
Results are shown as a percentage of SMAD phosphorylation by BMP alone (control BMP). Experiments were performed using lung fibroblasts from idiopathic pulmonary fibrosis patients. rhGremlin-1 and the anti-Gremlin-1 antibodies were preincubated for 45 minutes at room temperature. rhGremlin-1 and the anti-Gremlin-1 antibodies were then added with BMP to the cells for 30 minutes.

Vil1-Grem1 mice = assay: AOM mutagenesis in Vil1-Grem1 mice; format: in vivo, mouse; conditions: 30 mg/kg weekly antibody for three weeks before and after three 10 mg/kg weekly AOM doses
Text: Aberrant epithelial Grem1 expression in Vil1-Grem1 mice promotes an epithelial stem/progenitor cell phenotype (Davis et al., 2015), and we hypothesised that these cells would be susceptible to somatic mutation. We used azoxymethane (AOM) administration to examine the effect of a mutagenic insult on untreated Vil1-Grem1 and anti-Grem1 treated Vil1Grem1 mice. AOM is a well-documented mutagen widely utilised in murine models to recapitulate spontaneous CRC carcinogenesis (Neufert and Neurath, 2007).
Mice were treated with three subcutaneous doses of 30 mg/kg weekly anti-Grem1 antibody followed by three intraperitoneal doses of 10 mg/kg weekly azoxymethane (AOM, Sigma) or vehicle (saline) prior to a further three weeks of 30 mg/kg weekly anti-Grem1 antibody. Treatment commenced at or from the age of 90 days onwards, which is late enough in the Vil1-Grem1 disease process to ensure expansion of the progenitor cell population and subsequent formation of ectopic crypt foci.

[1] = tested on: PyMT-B01 mouse breast cancer cells; assay: PyMT-B01 breast cancer model in C57BL6 mice (BLI); format: in vivo
Method: PyMT-B01: 5-week old C57BL6 immunocompetent mice were subcutaneously (s.c) administered two 30 mg/kg doses of anti-Grem1 antibody Ab7326 or IgG control, Ab101.4, the week prior to tumour cell inoculation. 1×10^5 luciferase expressing PyMT-B01 mouse breast cancer cells were injected systemically via the caudal artery (CA).
Treatment continued twice weekly for the duration of the study. At weekly intervals, mice were administered 150 mg/kg luciferin intraperitoneally (i.p) and imaged using the Xenogen IVIS Bioluminescence Imaging System, and tumour burden was quantitated using Living Image software. The study ended on day 13 and day 22 post-tumour cell injection for the PyMT-B01 and MDA-MB-231 models respectively, according to animal ethics requirements. Organs were dissected upon culling animals and BLI imaged ex vivo for analysis of tumour metastasis.

rhGrem1 = biological target: T2, rhGrem1 (Homo sapiens, UniProt O60565); assay: Western blot of Smad1/5/9 phosphorylation in murine 4T1 breast cancer cells; format: cell-based, mouse; conditions: 10 ng/ml BMP2, 100 ng/ml rhGrem1 pre-incubated with antibody; vs isotype control
T2 sequence (O60565 25-184): T1 sequence (O60565 25-184)
Method: Murine 4T1 BrCa cells were seeded into 6-well plates and cultured until 80% confluent. Cells were starved in serum-free medium overnight, and then stimulated with indicated treatments for 2 hrs. Cell lysates were prepared and equivalent amounts of protein (50 μg) were separated on 10% sodium dodecyl sulphate-polyacrylamide gel electrophoresis (SDS-PAGE) gels and transferred to nitrocellulose membranes. Immunoblotting was performed with phospho-Smad1/5/9 antibodies (cell signalling technologies, 1:1000 dilution). Equal loading of protein samples was confirmed by blotting membranes with antibodies against β-actin (Sigma Aldrich, 1:2500 dilution). Proteins were visualised using the Odyssey Infrared Imaging System (LI-COR Bioscience, Lincoln, NE, USA).
As Grem1 is a known BMP-2/4/7 antagonist, we assessed the ability of UCB antibody Ab7326 to inhibit Grem1-induced inhibition of Smad1/5/9 phosphorylation via western blot analysis. Murine 4T1 breast cancer cells exposed to 10 ng/ml BMP2 which led to Smad1/5/9 phosphorylation. Co-incubation with 100 ng/ml rhGrem1 inhibited this BMP2-mediated Smad1/5/9 phosphorylation.

**Q.** “Ab7326: allosteric inhibitory anti-Gremlin-1 antibody from a naïve human library; CDRs SEQ ID NOS 4 to 9; mouse IgG1 in mouse experiments” was tested. Which median survival (Vil1-Grem1;Apc^Min mice; 15 mg/kg weekly, from 21 days of age, vehicle 45 days) did it give?
**A.** The median survival was 76.5 days.

**Q.** What about the mean lifespan (Vil1-Grem1;Apc^Min mice; 30 mg/kg twice weekly from 3 weeks of age, untreated VG-min 46 days) of the same substance?
**A.** The mean lifespan was 108 days.

**Q.** And the median survival (Vil1-Grem1;Apc^Min mice; 30 mg/kg weekly, from 21 days of age, ongoing experiment)?
**A.** The median survival was 108 days.

**Q.** And the median survival (Vil1-Grem1;Apc^Min mice; 60 mg/kg weekly, from 21 days of age, ongoing experiment)?
**A.** The median survival was 111 days.

**Q.** And the median survival (Vil1-Grem1;Apc^Min mice; late stage: treatment at or from the age of 35 days, antibody 30 mg/kg weekly, 5FU two i.p. daily doses of 40 mg/kg, no treatment 45 days)?
**A.** Its median survival is 49.5 days.

**Q.** What about the median survival (Apc^Min mice; early stage treatment (42 days), 30 mg/kg weekly) of the same substance?
**A.** Its median survival is 424.5 days.

**Q.** And the median survival (Apc^Min mice; established polyposis, 30 mg/kg weekly from 4 months)?
**A.** The median survival was 264.5 days.

**Q.** And the median survival (Apc^Min mice; late-stage treatment (120 days), 30 mg/kg weekly)?
**A.** Its median survival is 261 days.

**Q.** What about the “Survival / polyp development” value (Apc^Min mice; long term treatment initiated at 6 weeks of age) of the same substance?
**A.** Its value is “prolonged survival”.

**Q.** What about the “Restoration of p-SMAD signalling, percentage of SMAD phosphorylation by BMP alone” value (rhGremlin-1; BMP 2 50 ng/ml) of the same substance?
**A.** Its value is 107.2%.

**Q.** What about the “Restoration of p-SMAD signalling, percentage of SMAD phosphorylation by BMP alone” value (rhGremlin-1; BMP 4 25 ng/ml) of the same substance?
**A.** The value was 110.0%.

**Q.** And the “Restoration of p-SMAD signalling, percentage of SMAD phosphorylation by BMP alone” value (rhGremlin-1; BMP4/7 50 ng/ml)?
**A.** Its value is 127.0%.

**Q.** And the “Restoration of p-SMAD signalling, percentage of SMAD phosphorylation by BMP alone” value (rhGremlin-1; BMP 7 200 ng/ml)?
**A.** The value was 108.0%.

**Q.** And the “Restoration of p-SMAD signalling, percentage of SMAD phosphorylation by BMP alone” value (rhGremlin-1; BMP-2/7 50 ng/ml)?
**A.** Its value is 128.5%.

**Q.** What about the “Increased tumour burden and reduced survival of AOM-treated animals” value (Vil1-Grem1 mice) of the same substance?
**A.** The value was “partially abrogated”.

**Q.** And the “Reduction in overall tumour burden (BLI)” value ([1]; day 13, 30 mg/kg s.c. twice weekly, vs isotype control Ab101.4)?
**A.** Its value is 35%.

**Q.** What about the “Liver metastatic tumour burden (BLI)” value ([1]; vs isotype control) of the same substance?
**A.** Its value is “downward trend”.

**Q.** What about the “Lung metastatic tumour burden (ex vivo BLI)” value ([1]; vs isotype control) of the same substance?
**A.** The value was “statistically significant reduction”.

**Q.** And the “Smad1/5/9 phosphorylation in 4T1 cells” value (rhGrem1)?
**A.** The value was “partially restored”.
